In brackets after ≈: the same amount, converted by molar mass.
What was measured:
in vitro = type: cell-based; settings: human; C8166 cells, MTT, 3 days; read-out: cytotoxicity CC50
Method: (§1) Cellular toxicity of compounds was assessed by MTT method. Briefly, cells were seeded on a microtiter plate in the absence or presence of various concentrations of compounds in triplicate and incubated at 37 °C in a humid atmosphere of 5% CO2 for 3 days. Twenty microliters of MTT reagent (5 mg/mL in PBS) was added to each well, then incubated at 37 °C for 4 h, 100 μL of 50% DMF-20% SDS was added. After the formazan was dissolved completely, the plates were read on a Bio-Tek ELx 800 ELISA reader at 595 nm/630 nm (A595/630). The cytotoxic concentration that caused the reduction of viable cells by 50% (CC50) was calculated from dose–response curve.
as §1, with “b. MTT-based cytotoxicity assay. Cellular” for “Cellular”, “4h,” for “4 h,”, “595nm/630” for “595 nm/630”, “dose-response curve ^[2].” for “dose–response curve.”

HIV-1IIIB = test: microbe, parasite or virus in culture; type: cell-based; settings: for EC50: Human immunodeficiency virus 1, 72 h, read-out: anti-HIV-1 EC50 (syncytia formation induced by HIV-1IIIB)
Method: (§2) In the presence of 100 μL various concentrations of compounds, C8166 cells (4 × 10^5/mL) were infected with virus (HIV-1IIIB) at a multiplicity of infection (M.O.I) of 0.06. The final volume per well was 200 μL. Control assays were performed without the testing compounds in HIV-1IIIB infected and uninfected cultures. AZT was included as positive control. After 3 days of culture, the cytopathic effect (CPE) was measured by counting the number of syncytia (multinucleated giant cell). Percentage inhibition of syncytia formation was calculated and 50% effective concentration (EC50) was calculated.
as §2, with “c. Syncytia assay. In” for “In”, “(4×10^5/mL)” for “(4 × 10^5/mL)”, “calculated ^[3].” for “calculated.”

pNL4-3gp41(36G)V38E,N42S = type: cell-based, HIV-1; settings: T20-resistant strain pNL4-3gp41(36G)V38E,N42S in C8166 cells
pNL4-3gp41(36G)V38A,N42T = type: cell-based, HIV-1; settings: T20-resistant strain pNL4-3gp41(36G)V38A,N42T in C8166 cells
[1] = target: T1, purified recombinant HIV-1 RT (Human immunodeficiency virus type 1 group M subtype B, UniProt P04585); test: RT (reverse transcriptase) assay, ELISA RT kit; type: biochemical; settings: read-out: EC50, inhibition of recombinant HIV-1 RT activity (converted)
T1 construct: purified recombinant HIV-1 RT; purchased Roche
Method: (§3) HIV-1 RT activity was measured by ELISA RT kit (Roche) using a commercially available kit according to the protocol provided by the manufacturer. Samples were incubated with DIG-labeled-reaction mixture at 37 °C for 15 h. Anti-DIG-POD solution was added afterward followed by substrate ABTS. The absorbance at 405/490 nm (A405/490) was determined in the ELISA reader.
as §3, with “e. RT (reverse transcriptase) assay. HIV-1” for “HIV-1”, “reader ^[4].” for “reader.”

[2] = tested on: fusion of H9/HIV-1IIIB cells with uninfected C8166 cells; test: cells; settings: Human immunodeficiency virus 1, C8166, 6 h, read-out: EC50, inhibition of fusion of H9/HIV-1IIIB cells with uninfected C8166 cells
Method: (§4) C8166 cells (3 × 10^4) co-cultured with 1 × 10^4 virus (HIV-1IIIB) infected H9 cells in the presence or absence of the compound with various concentrations at 37 °C in a humidified atmosphere of 5% CO2. T20 was used as positive control. After 6 h incubation, the number of syncytia was scored under an inverted microscope [18].
(§5) Co-cultivation assay. C8166 cells (3×10^4) co-cultured with 1×10^4 virus (HIV-1IIIB) infected H9 cells in the presence or absence of the compound with various concentrations at 37 °C in a humidified atmosphere of 5% CO2. Dextran sulfate (DS) was used as positive control. After 6 h incubation, the number of syncytia was scored under an inverted microscope ^[3].

HIV-1 = settings: cited from earlier work
C8166 = test: in vitro; type: cell-based; settings: C8166 cells, MTT, 3 days
Method: as §1
as §1, with “b. MTT-based cytotoxicity assay. Cellular” for “Cellular”, “4h,” for “4 h,”, “595nm/630” for “595 nm/630”, “dose-response curve ^[2].” for “dose–response curve.”

[3] = tested on: fusion of H9/HIV-1IIIB cells with uninfected C8166 cells; settings: 6 h
Method: as §4, §5

[4] = C8166 cells, HIV-1IIIB, M.O.I 0.06, 3 days

## CC1CCCCCCC(C)C(=O)OC2C(=CCl)C=C3C2(O)C(O)C2(CO)OC2C2C4OC5(c6ccccc6)OC(C(C)C32O5)C4(O)C(O)(CO)C1 (stereo not drawn) [Compound 6, Trigocheriolide E]
In vitro
  CC50: 18.3 µg/mL (≈ 24900 nM)
HIV-1IIIB; C8166 cells, HIV-1IIIB
  selectivity index CC50/EC50: 12193.33
HIV-1IIIB; [4]
  EC50: 0.0015 µg/mL (≈ 2.05 nM)
pNL4-3gp41(36G)V38E,N42S
  EC50 (syncytium formation): 0.00374 µg/mL (≈ 5.1 nM)
pNL4-3gp41(36G)V38A,N42T
  EC50 (syncytium formation): 0.00381 µg/mL (≈ 5.2 nM)
[1]
  EC50: 261 µM
[2]
  EC50: 0.00176 µg/mL (≈ 2.4 nM)

## C=C1C=C2C3(O)C1OC(=O)C(C)CCCCCCC(C)CC(O)(CO)C1(O)C4OC5(c6ccccc6)OC1C(C1OC1(CO)C3O)C2(O5)C4C (stereo not drawn) [Compound 3, Trigonolactone E]
In vitro
  CC50: 17.5 µg/mL (≈ 25000 nM)
HIV-1IIIB; C8166 cells, HIV-1IIIB
  selectivity index CC50/EC50: 29610.17
HIV-1IIIB; [4]
  EC50: 0.00059 µg/mL (≈ 0.844 nM)
pNL4-3gp41(36G)V38E,N42S
  EC50 (syncytium formation): 0.00443 µg/mL (≈ 6.34 nM)
[1]
  EC50: > 429 µM
[2]
  EC50: 0.00185 µg/mL (≈ 2.65 nM)

## trigonothyrins C
HIV-1
  anti-HIV-1 EC50: 2.19 µg/mL

## CC1CCCCCCC(C)C(=O)OC2C(=CCl)C=C3C2(O)C(O)C2(CO)OC2C2C4OC5(c6ccccc6)OC(C(C)C32O5)C4(O)C(C)(O)C1 (stereo not drawn) [Compound 4, Trigocherriolide B]
In vitro
  CC50: 14.9 µg/mL (≈ 20800 nM)
HIV-1IIIB; C8166 cells, HIV-1IIIB
  selectivity index CC50/EC50: 1811.43
HIV-1IIIB; [4]
  EC50: 0.00822 µg/mL (≈ 11.5 nM)
pNL4-3gp41(36G)V38E,N42S
  EC50 (syncytium formation): 0.00297 µg/mL (≈ 4.14 nM)
[1]
  EC50: 278 µM
[2]
  EC50: 0.00873 µg/mL (≈ 12.2 nM)

## trigonothyrins F
HIV-1
  anti-HIV-1 EC50: 0.13 µg/mL

## Cc1cn([C@H]2C[C@H](N=[N+]=[N-])[C@@H](CO)O2)c(=O)[nH]c1=O [AZT, reference compound]
C8166
  cytotoxicity CC50: 1006.69 µg/mL
HIV-1IIIB; [4]
  anti-HIV-1 EC50 (syncytia formation induced by HIV-1IIIB): 0.00508 µg/mL

## C=C1C=C2C3(O)C1OC(=O)C(C)CCCCCCC(C)CC(C)(O)C1(O)C4OC5(c6ccccc6)OC1C(C1OC1(CO)C3O)C2(O5)C4C (stereo not drawn) [Compound 1, Trigonolactone B]
In vitro
  CC50: 16.5 µg/mL (≈ 24100 nM)
HIV-1IIIB; [4]
  EC50: 0.00106 µg/mL (≈ 1.55 nM)
pNL4-3gp41(36G)V38E,N42S
  EC50 (syncytium formation): 0.0033 µg/mL (≈ 4.83 nM)
pNL4-3gp41(36G)V38A,N42T
  EC50 (syncytium formation): 0.0026 µg/mL (≈ 3.81 nM)
[1]
  EC50: > 439 µM
[2]
  EC50: 0.00225 µg/mL (≈ 3.3 nM)

## C=C1C=C2C3(O)C1OC(=O)C(C)CCCCCCC(C)CC(O)(COC(=O)c1ccccc1O)C1(O)C4OC5(c6ccccc6)OC1C(C1OC1(CO)C3O)C2(O5)C4C (stereo not drawn) [Compound 2, Trigonolactone D]
In vitro
  CC50: 8.49 µg/mL (≈ 10400 nM)
HIV-1IIIB; C8166 cells, HIV-1IIIB
  selectivity index CC50/EC50: 4468.42
HIV-1IIIB; [4]
  EC50: 0.0019 µg/mL (≈ 2.32 nM)
pNL4-3gp41(36G)V38E,N42S
  EC50 (syncytium formation): 0.00272 µg/mL (≈ 3.32 nM)
pNL4-3gp41(36G)V38A,N42T
  EC50 (syncytium formation): 0.00583 µg/mL (≈ 7.12 nM)
[1]
  EC50: 60.2 µM
[2]
  EC50: 0.00462 µg/mL (≈ 5.64 nM)

## CC1CCCCCCC(C)C(=O)OC2C(=CCl)C=C3C2(O)C(O)C2(CO)OC2C2C4OC5(c6ccccc6)OC(C(C)C32O5)C4(O)C(O)(COC(=O)c2ccccc2O)C1 (stereo not drawn) [Compound 5, Trigocherriolide A]
In vitro
  CC50: 15.5 µg/mL (≈ 18200 nM)
HIV-1IIIB; C8166 cells, HIV-1IIIB
  selectivity index CC50/EC50: 5407.67
HIV-1IIIB; [4]
  EC50: 0.00287 µg/mL (≈ 3.36 nM)
pNL4-3gp41(36G)V38E,N42S
  EC50 (syncytium formation): 0.00288 µg/mL (≈ 3.37 nM)
pNL4-3gp41(36G)V38A,N42T
  EC50 (syncytium formation): 0.00343 µg/mL (≈ 4.02 nM)
[1]
  EC50: 313 µM
[2]
  EC50: 0.00106 µg/mL (≈ 1.24 nM)

## Enfuvirtide
HIV-1IIIB; 1IIIB
  anti-HIV-1 EC50 (syncytia formation induced by HIV-1IIIB): 0.09725 µg/mL
[3]
  EC50, inhibition of fusion of H9/HIV-1IIIB cells with uninfected C8166 cells: 0.00977 µg/mL

— article PMC7046902, “Daphnane Diterpenoids from Trigonostemon lii and Inhibition Activities Against HIV-1” (Natural Products and Bioprospecting, 2020)
